Experimental data reported in publication PMC7415757, “Monocrotaline-induced liver toxicity in rat predicted by a combined in vitro physiologically based kinetic modeling approach” (Archives of Toxicology, 2020).
Where two headings read alike, the source gives them in different places.

Tests used:
[1] = ref Chen et al. [2018], cited from earlier work
[2] = ref Chen et al. [2018]; cited from earlier work
[3] = tested on: human liver cell line HepaRG; conditions: in vitro γH2AX induction potency, ref Louisse et al. ([2019]); cited from earlier work
[4] = tested on: primary rat hepatocytes; conditions: same model system; ref Chen et al. [2018]; read-out: EC50 cell viability; cited from earlier work
[5] = tested on: primary rat hepatocytes; experiment: WST-1 cytotoxicity assay with primary rat hepatocytes; format: cell-based, rat (Sprague–Dawley); conditions: primary rat hepatocytes
Protocol: The monocrotaline-induced liver toxicity was tested in vitro using the WST-1 assay which measures the formazan formation by the metabolically active cells from WST-1. Pooled cryopreserved plateable male rat (Sprague–Dawley) hepatocytes (RTCP10™) were thawed and seeded in accordance with the manufacturer’s protocol. Briefly, cells were seeded in 96-well plates (Greiner bio-one, Alphen aan den Rijn, The Netherlands) at a concentration of 5 × 10^5 cells/ml to give 1.25 × 10^4 cells/well and incubated at 37 °C, 5% CO2 in a humidified atmosphere for 6 h to allow cell adherence. […] The solvent DMSO (0.5% (v/v) final concentration in exposure medium) was used as a negative control and triton X (final concentration 1% (v/v) in exposure medium) served as a positive control in all cytotoxicity assays. After exposure for 24 h, 5 μl (1:20 dilution) WST-1 reagent was added to each well and plates were incubated for an additional 1 h. Then, the plate was shaken at 1000 rpm for 1 min, and absorbance was measured at 440 nm (background absorbance at 620 nm was subtracted) using a SpectraMax M2 (Molecular Devices, Sunnyvale, USA).
Data are presented as mean values ± SE from three independent experiments with three different batches of rat hepatocytes. The cell viability was expressed as percentage of the solvent control, with the solvent control set at 100%. The obtained concentration–response curves for hepatotoxicity were fitted with a symmetrical sigmoidal model (Hill slope) which was further used to derive IC50 values using log [inhibitor] vs. normalized response using GraphPad Prism software (version 5.00 for Windows, GraphPad software, San Diego, USA).

[6] = ref Chen et al. [2018], cited from earlier work; remark: listed apart in the source
[7] = Substrate depletion in incubations with pooled rat liver microsomes; format: in vitro ADME, rat (Sprague–Dawley); conditions: liver microsomes versus intestinal microsomes
Protocol: After 5 min of pre-incubation in a shaking water bath at 37 °C, the reactions were started by the addition of 1 mM NADPH. The reactions were carried out for 1 h and 2 h for liver and intestinal microsomes, respectively. For each incubation, a corresponding control incubated in the absence of NADPH was included by adding buffer instead of NADPH. To stop the metabolic conversion, 100 µl of ice-cold methanol was added and the sample was put on ice, then centrifuged at 5000 × g for 20 min at 4 °C using a microcentrifuge (CT15RE, VWR, Leuven, Belgium). Supernatants were diluted 200 times in 90% (v/v) acetonitrile and transferred to LC–MS vials. LC–MS analysis was performed using a Shimadzu Nexera XR LC-20AD SR UPLC system in tandem with a Shimadzu LCMS-8040 mass spectrometer (Shimadzu, Kyoto, Japan). From each incubation, 1 µl of supernatant was loaded onto a Luna Omega polar C18 100A LC column (1.6 µm 100 × 2.1 mm, Phenomenex) fitted with a FP polar precolumn (Phenomenex), using a flow rate of 0.3 ml/min. The temperature was set at 40 °C and 5 °C for column and sample, respectively. The mobile phase consisted of ultrapure water (solvent A) and acetonitrile (solvent B) both containing 0.1% (v/v) formic acid. The gradient began with 100% solvent A (0% B) for 1 min to wash away unwanted salts, followed by a linear gradient from 0 to 5% B till 8 min and a further increase to 100% B in 2 min, keeping the elution at 100% B for 0.5 min, then the column was set back to the starting conditions and equlibrated for 3.4 min before the next injection. […] For all incubations, three independent replicates were performed.
The ratio of Vmax and Km was calculated as the in vitro catalytic efficiency (kcat) expressed in […]. […] The rat liver weight of 8.5 g and small intestine weight of 3.5 g (see Table 1) (Brown et al. [1997]) were used to scaled the in vivo kcat values to values expressed in ml/min/tissue.

[8] = ref Merz and Schrenk ([2016]); cited from earlier work
[9] = ref Chen et al. [2018]; cited from earlier work; remark: listed apart in the source

Row | Compound | Km ([1]; intestine) | Tissue/blood partition coefficient, fat (PF) [2] | Tissue/blood partition coefficient, liver (PL) [2] | Tissue/blood partition coefficient, richly perfused tissue (PR) [2] | Tissue/blood partition coefficient, slowly perfused tissue (PS) [2] | Tissue/blood partition coefficient, small intestine (PI) [2] | potency group [3] | EC50 [4] | times more toxic than monocrotaline in vitro [5] | Km ([6]; liver) | further results
1 | C/C=C(/C)C(=O)O[C@H]1CCN2CC=C(COC(=O)[C@@](O)([C@H](C)OC)C(C)(C)O)[C@H]12 [Lasiocarpine] | 23.4 µM | 2.44 | 0.88 | 0.88 | 0.48 | 0.88 | group 1 | 10.9 µM | 35.7 | 19.5 µM | 
2 | C=C1C/C(=C/C)C(=O)O[C@@H]2CCN3CC=C(COC(=O)[C@@]1(O)CO)[C@H]23 [Riddelliine] | 221 µM | 0.44 | 0.77 | 0.77 | 0.43 | 0.77 | group 1 | 6.3 µM | 20.7 | 75.7 µM | Scaled Vmax ([1]; intestine): 2.06 nmol/min/g tissue; Scaled kcat ([1]; intestine): 0.009 ml/min/g tissue; Vmax ([1]; intestine): 0.1 nmol/min/mg microsomal protein; Scaled kcat ([1]; small intestine weight 3.5 g): 0.03 ml/min/ tissue; in vivo scaled kcat (ml/min tissue) liver relative to intestine [7]: 253 times; pRPF (provisional relative potency factor) [3]: 1; pRPF (provisional relative potency factor) [8]: ~1.0; Ka derived from Eq. 5 [9]: 1.17 h⁻¹; Scaled kcat ([6]; liver weight 8.5 g): 8.2 ml/min/ tissue; Scaled Vmax ([6]; liver): 73.5 nmol/min/g tissue; Scaled kcat ([6]; liver): 0.97 ml/min/g tissue; Vmax ([6]; liver): 2.1 nmol/min/mg microsomal protein
